This note sets out measurements from publication PMC12207590, “Substrate Specificity of the Organic Cation Transporters MATE1 and MATE2K and Functional Overlap with OCT1 and OCT2” (Journal of Medicinal Chemistry, 2025).

For one assay, the target named is T1, MATE1 (Homo sapiens, UniProt Q96FL8).
T1 sequence (Q96FL8 1-570): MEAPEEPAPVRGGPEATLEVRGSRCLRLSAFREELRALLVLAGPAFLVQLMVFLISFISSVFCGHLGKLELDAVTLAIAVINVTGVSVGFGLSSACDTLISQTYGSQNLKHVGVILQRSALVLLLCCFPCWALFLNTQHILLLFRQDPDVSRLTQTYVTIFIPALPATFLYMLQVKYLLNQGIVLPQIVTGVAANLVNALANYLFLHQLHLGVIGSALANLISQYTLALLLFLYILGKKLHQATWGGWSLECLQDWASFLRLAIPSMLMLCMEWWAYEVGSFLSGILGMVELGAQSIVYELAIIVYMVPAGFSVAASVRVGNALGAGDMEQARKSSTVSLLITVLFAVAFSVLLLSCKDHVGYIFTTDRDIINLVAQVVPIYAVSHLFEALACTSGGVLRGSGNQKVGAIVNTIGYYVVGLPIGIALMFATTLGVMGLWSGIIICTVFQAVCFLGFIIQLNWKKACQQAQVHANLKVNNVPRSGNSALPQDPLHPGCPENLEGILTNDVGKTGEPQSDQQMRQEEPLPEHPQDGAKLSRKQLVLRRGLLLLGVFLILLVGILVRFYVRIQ
The assay is described as follows: Uptake ratio in MATE1-overexpressing HEK293 cells vs empty vector (2.5 μM, 1 min, HPLC-MS/MS). It counts as cell-based.

The next assay concerns the target MATE2K (Homo sapiens, UniProt Q86VL8). Kind of assay: Uptake ratio in MATE2K-overexpressing HEK293 cells vs empty vector (2.5 μM, 1 min, HPLC-MS/MS). It counts as cell-based.
Setting [1] is: fold uptake over empty vector, 2.5 μM, 1 min.
[2] abbreviates: uptake ratio MATE1-overexpressing vs empty-vector HEK293 cells, 2.5 μM, 1 min, mean.
[3] abbreviates: uptake ratio MATE2K-overexpressing vs empty-vector HEK293 cells, 2.5 μM, 1 min, mean.
[4] abbreviates: fold uptake over empty vector, 2.5 μM, 1 min, listed as reproterol.

Structures are written as SMILES. Where two headings read alike, the source gives them in different places.

Chain of MATE2K (Q86VL8 1-566 isoform Q86VL8-3): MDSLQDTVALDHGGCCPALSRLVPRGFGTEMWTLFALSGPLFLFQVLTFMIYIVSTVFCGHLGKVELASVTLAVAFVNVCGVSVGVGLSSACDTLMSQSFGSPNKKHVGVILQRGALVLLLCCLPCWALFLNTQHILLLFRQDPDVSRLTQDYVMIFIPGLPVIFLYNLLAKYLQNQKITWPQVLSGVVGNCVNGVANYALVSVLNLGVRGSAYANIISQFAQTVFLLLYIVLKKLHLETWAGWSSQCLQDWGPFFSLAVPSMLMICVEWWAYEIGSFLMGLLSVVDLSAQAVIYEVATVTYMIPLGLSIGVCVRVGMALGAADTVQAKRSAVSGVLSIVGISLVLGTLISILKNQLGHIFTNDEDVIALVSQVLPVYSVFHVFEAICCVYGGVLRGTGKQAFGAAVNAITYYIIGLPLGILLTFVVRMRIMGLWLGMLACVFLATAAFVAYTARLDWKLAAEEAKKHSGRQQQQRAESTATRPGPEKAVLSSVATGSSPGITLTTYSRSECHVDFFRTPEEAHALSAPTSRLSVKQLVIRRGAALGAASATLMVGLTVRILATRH

For `CC[N+](C)(CC)CCOC(=O)C(O)(c1ccccc1)C1CCCCC1` (centres unmarked) [Oxyphenonium], at MATE1 (setting [1]), the MATE1 ratio turned out to be 9.89. On MATE2K (setting [1]), the MATE2K ratio turned out to be 2.04.
With `CC(C)(CO)[C@@H](O)C(=O)NCCC(=O)O` [Pantothenic acid], at MATE1 (setting [1]), the MATE1 ratio turned out to be 1.48. Further, the MATE2K ratio on MATE2K (setting [1]) came out at 1.71.
With `CC(=O)Nc1ccc(O)cc1` [Paracetamol], the MATE1 ratio on MATE1 (setting [1]) is 1.00. For the same compound, at MATE2K (setting [1]), the MATE2K ratio amounted to 0.99.
In the same order, the values of `OCCN1CCN(CCCN2c3ccccc3Sc3ccc(Cl)cc32)CC1` [Perphenazine] are 1.09 and 0.94.
The matching figures for `NNCCc1ccccc1` [Phenelzine]: 1.58 and 1.91.
On to `N[C@@H](Cc1ccccc1)C(=O)O` [Phenylalanine], for which the MATE1 ratio at MATE1 (setting [1]) stood at 0.66. Also, on MATE2K (setting [1]), the MATE2K ratio was found to be 1.01.
Turning to `CNC[C@H](O)c1cccc(O)c1` [Phenylephrine (L), Phenylephrine], the MATE1 ratio on MATE1 (setting [1]) came to 18.71. In addition, the MATE2K ratio at MATE2K (setting [1]) is on record as 2.15.
`CNC[C@H](O)c1cccc(O)c1` [Phenylephrine (S), Phenylephrine]: the MATE1 ratio at MATE1 (setting [1]) worked out at 12.74. Moreover, the MATE2K ratio on MATE2K (setting [1]) is 1.44.
Take `CC[C@@H]1C(=O)OC[C@@H]1Cc1cncn1C` [Pilocarpine]: the MATE1 ratio at MATE1 (setting [1]) was determined as 1.39. Also, the MATE2K ratio on MATE2K (setting [1]) was found to be 1.39.
On to `O=c1[nH]c2ccccc2n1C1CCN(CCCC(c2ccc(F)cc2)c2ccc(F)cc2)CC1` [Pimozide], for which, on MATE1 (setting [1]), the MATE1 ratio came out at 0.98. In addition, at MATE2K (setting [1]), the MATE2K ratio is listed as 0.76.
For the compound `COc1ccc2[nH]c3c(c2c1)CCNC3` [Pinoline], at MATE1, the MATE1 ratio worked out at 1.28. Also, the MATE2K ratio at MATE2K was 1.21.
`C1CNCCN1` [Piperazine]: the MATE1 ratio at MATE1 (setting [1]) was found to be 0.92. At MATE2K (setting [1]), the MATE2K ratio worked out at 1.03.
The matching figures for `CN1CCN(CC(=O)N2c3ccccc3C(=O)Nc3cccnc32)CC1` [Pirenzepine]: 2.80 and 1.36.
In the same order, the values of `Nc1cccc2c1C(=O)N(C1CCC(=O)NC1=O)C2=O` (centres unmarked) [Pomalidomide] are 1.08 and 0.89.
In the same order, the values of `CC(=O)Nc1ccc(OCC(O)CNC(C)C)cc1` (centres unmarked) [Practolol] are 21.52 and 8.46.
As for `CC(C)NC[C@H](O)COc1ccc(O)cc1` [Prenalterol], the MATE1 ratio on MATE1 (setting [1]) stood at 5.01. Also, at MATE2K (setting [1]), the MATE2K ratio is 1.62.
In the same order, the values of `OC(CCN1CCCCC1)(c1ccccc1)c1ccccc1` [Pridinol] are 1.18 and 1.27.
For the compound `CC(C)NC(=N)NC(=N)Nc1ccc(Cl)cc1` [Proguanil], at MATE1 (Table S1, 2.5 μM, 1 min), the “MATE1 ratio in this study” value was found to be 5.54. Moreover, the MATE1 ratio on MATE1 (setting [1]) was determined as 5.54. Besides, the “MATE2K ratio in this study” value on MATE2K (Table S1, 2.5 μM, 1 min) came out at 3.98. Further, the MATE2K ratio at MATE2K (setting [1]) turned out to be 3.98.
As to `CC(C)[N+](C)(CCOC(=O)C1c2ccccc2Oc2ccccc21)C(C)C` [Propantheline], the MATE1 ratio on MATE1 (setting [1]) was found to be 10.16. For the same compound, the MATE1 at MATE1 (setting [2]) came to 10.16. For the same compound, the MATE2K ratio at MATE2K (setting [1]) was determined as 5.77. At MATE2K (setting [3]), the MATE2 is listed as 5.77.
Turning to `CC(C)c1cccc(C(C)C)c1O` [Propofol], at MATE1, the MATE1 was determined as 0.64 and the MATE1 ratio worked out at 0.64. At MATE2K, the MATE2 was found to be 0.8 and the MATE2K ratio stood at 0.80.
As to `CC(C)NCC(O)COc1cccc2ccccc12` [Propranolol (R), Propranolol], the MATE1 at MATE1 (setting [2]) is 1.16. Further, the MATE2 on MATE2K (setting [3]) is recorded as 1.04.
The matching figures for `CC(C)NCC(O)COc1cccc2ccccc12` [Propranolol (S), Propranolol]: 1.13 and 0.96.
`CCCCC[C@H](O)/C=C/[C@H]1[C@H](O)CC(=O)[C@@H]1C/C=C\CCCC(=O)O` [Prostaglandin E2]: on MATE1, the MATE1 is listed as 1.35 and the MATE1 ratio was found to be 1.35. Besides, on MATE2K, the MATE2 is listed as 1.21 and the MATE2K ratio was 1.21.
For the compound `CCCCC[C@H](O)/C=C/[C@@H]1[C@@H](C/C=C\CCCC(=O)O)[C@@H](O)C[C@H]1O` [Prostaglandin F2alpha], at MATE1 (setting [1]), the MATE1 ratio worked out at 1.41. Also, the MATE1 on MATE1 (setting [2]) was found to be 1.41. Further, the MATE2K ratio on MATE2K (setting [1]) came to 0.92. Besides, the MATE2 at MATE2K (setting [3]) is 0.92.
Regarding `NCCCCN` [Putrescine], the MATE1 ratio at MATE1 (setting [1]) is on record as 0.36. The MATE1 at MATE1 (setting [2]) stood at 0.36. For the same compound, the MATE2K ratio at MATE2K (setting [1]) is recorded as 0.48. Also, on MATE2K (setting [3]), the MATE2 turned out to be 0.48.
Turning to `Cc1ncc(CO)c(C=O)c1O` [Pyridoxal], on MATE1 (setting [1]), the MATE1 ratio worked out at 0.97. In addition, the MATE1 on MATE1 (setting [2]) was found to be 0.97. In addition, the MATE2K ratio at MATE2K (setting [1]) stood at 1.14. On MATE2K (setting [3]), the MATE2 is 1.14.
As for `CCc1nc(N)nc(N)c1-c1ccc(Cl)cc1` [Pyrimethamine], the MATE1 ratio at MATE1 (setting [1]) was 1.17. Moreover, the MATE1 on MATE1 (setting [2]) was found to be 1.17. For the same compound, the MATE2K ratio at MATE2K (setting [1]) came to 1.10. The MATE2 at MATE2K (setting [3]) was 1.1.
Consider `Br.Cc1ncc(C[n+]2cccc(CCO)c2C)c(N)n1.[Br-]` [Pyrithiamine], for which the MATE1 ratio on MATE1 (setting [1]) turned out to be 20.40. Moreover, the MATE1 on MATE1 (setting [2]) came out at 20.4. Besides, at MATE2K (setting [1]), the MATE2K ratio worked out at 7.32. Besides, the MATE2 on MATE2K (setting [3]) amounted to 7.32.
Turning to `CC(CCc1ccc(O)cc1)NCC(O)c1ccc(O)cc1` (centres unmarked) [Ractopamine], on MATE1, the MATE1 was found to be 4.56 and the MATE1 ratio was determined as 4.56. In addition, at MATE2K, the MATE2 turned out to be 1.4 and the MATE2K ratio was 1.40.
In the case of `O=C(c1ccc(OCCN2CCCCC2)cc1)c1c(-c2ccc(O)cc2)sc2cc(O)ccc12` [Raloxifene], the MATE1 ratio at MATE1 (setting [1]) was 1.12. Also, the MATE1 on MATE1 (setting [2]) came out at 1.12. The MATE2K ratio on MATE2K (setting [1]) is given as 1.12. For the same compound, the MATE2 at MATE2K (setting [3]) is recorded as 1.12.
With `COc1ccccc1OCC(O)CN1CCN(CC(=O)Nc2c(C)cccc2C)CC1` (centres unmarked) [Ranolazine], the MATE1 ratio at MATE1 (setting [1]) is 1.11. In addition, the MATE1 at MATE1 (setting [2]) is 1.11. Moreover, at MATE2K (setting [1]), the MATE2K ratio was 1.30. At MATE2K (setting [3]), the MATE2 amounted to 1.3.
`C#CCN[C@@H]1CCc2ccccc21` [Rasagiline (S), Rasagiline]: on MATE1 (setting [1]), the MATE1 ratio stood at 1.46. Also, the MATE1 on MATE1 (setting [2]) was 1.46. At MATE2K (setting [1]), the MATE2K ratio worked out at 1.46. Moreover, the MATE2 on MATE2K (setting [3]) is listed as 1.46.
`CCN1CCC[C@H]1CNC(=O)c1c(OC)ccc(Br)c1OC` [Remoxipride]: at MATE1 (setting [1]), the MATE1 ratio is on record as 1.19. Moreover, on MATE1 (setting [2]), the MATE1 stood at 1.19. The MATE2K ratio on MATE2K (setting [1]) is 1.21. Further, on MATE2K (setting [3]), the MATE2 is on record as 1.21.
For `Cn1c(=O)c2c(ncn2CCCNCC(O)c2cc(O)cc(O)c2)n(C)c1=O` (centres unmarked) [Reproterol], the MATE1 ratio was 5.18 at MATE1 (setting [1]) and 5.2 on MATE1 (setting [4]). Moreover, on MATE1 (setting [2]), the MATE1 worked out at 5.18. Moreover, the MATE2K ratio was 17.96 on MATE2K (setting [1]) and 17.9 on MATE2K (setting [4]). The MATE2 at MATE2K (setting [3]) is recorded as 17.96.
As to `COC(=O)[C@H]1[C@H]2C[C@@H]3c4[nH]c5cc(OC)ccc5c4CCN3C[C@H]2C[C@@H](OC(=O)c2cc(OC)c(OC)c(OC)c2)[C@@H]1OC` [Reserpine], the MATE1 ratio at MATE1 (setting [1]) is 1.61. Moreover, the MATE1 at MATE1 (setting [2]) was 1.61. At MATE2K (setting [1]), the MATE2K ratio was found to be 1.08. In addition, the MATE2 at MATE2K (setting [3]) was 1.08.
